Source: paper PMC3812159, “A Comparative Analysis of the Ubiquitination Kinetics of Multiple Degrons to Identify an Ideal Targeting Sequence for a Proteasome Reporter” (PLoS ONE, 2013)
One block for each compound: values may come before it.

How the values were obtained:
Hdm2 = target: T1, Hdm2 (Homo sapiens, UniProt Q00987); assay: Cell-free ubiquitination assay; format: biochemical; settings: 1 µM Hdm2, 1 µM Ube1, 10 µM UbcH5b, 10 µM peptide, wild type ubiquitin, 2 hours at 30°C
T1 construct: purchased Enzo Life Sciences
Method: Samples were run on gels and imaged as described above.
Figure 5 Variations in E3 ligase activity result in fluxuations in degron-based substrate ubiquitination. (A) To evaluate the impact of different levels of E3 ligase activity, the four top performing degron-based substrates (β-Catenin, Bonger, iNOS, and p53) were incubated in lysates from four different cell lines (HeLa, U937, THP-1, and HL60) in the ubiquitin pull down assay. Further, the assay was supplemented with wild type ubiquitin to examine polyubiquitin chain formation. All reaction mixtures were incubated for 2 hours at 37°C prior to continuation with the pull down assay. (B) The effects of a NEDD8 inhibitor (MLN-4924) and an E1 inhibitor (PYR-41) were examined on the TAZ-based substrate (a target of the SCF^βTrCP E3 ligase). The ubiquitin pull down was performed as previously described with the reactions incubated for 2 hours with the listed inhibitor concentrations at 37°C prior to continuation with the pull down assay. (C) A cell-free ubiquitination assay was performed on the p53-based substrate using an enzymatic cascade culminating with 1 µM Hdm2 and supplemented with wild type ubiquitin. Lane 1 contains all assay components, lane 2–4 were control experiments removing a member of the E1–E3 enzymatic cascade. […]

[1] = system: HeLa S100 cytosolic lysates as the source of E1, E2, and E3 enzymes; assay: Ubiquitin pull down assay with methylated ubiquitin, multi-monoubiquitination kinetic model; format: biochemical; settings: ratio of fitted rate constants, >1 favours ubiquitination, <1 degradation
From the text: A second model based on substrate multi-monoubiquitination was developed and evaluated. This model assumed that the generation of di-, tri-, and tetra-ubiquitinated species was the result of multiple methylated ubiquitins being conjugated to the multiple available lysines found on the degron-based substrate (Figure 3a). As opposed to the polyubiquitination model, the multi-monoubiquitination model accurately fit the data for all eight degron-based substrates (Figure 3b–d, Figure S4 in File S1, Table 2). Using this model, kinetic rate constants for all ubiquitination (k1 for mono-, k2 for di-, k3 for tri-, and k4 for tetra-) and peptidase-dependent degradation steps (Table 2) were calculated. The multi-monoubiquitination model nicely corresponded to the observed results in Figure 2. […] The model also captured the preference for di-ubiquitination of the Cyclin D1 degron (k2 is two-fold greater than k1) and the equal preference of mono- and di-ubiquitination states found in the HIF-1α degron (k1 of 2.6 and k2 of 3.0). Further, the similar behavior and observed kinetics for IFNAR and TAZ degrons were mostly likely due to the fact that these degrons are recognized by the same E3 ligase, SCF^βTrCP (Table 1). To test the robustness of the multi-monoubiquitination model, a ninth substrate based on the degron from the protein β-Catenin was assessed. This substrate was selected because it is ubiquitinated by the same E3 ligase as TAZ and IFNAR1, SCF^βTrCP. The model accurately fit the data for the multi-monoubiquitination of the β-Catenin degron-based substrate with similar rate constants compared to the TAZ and IFNAR1-based substrates (Table 2). Finally, it was important to assess the validity of the model by addressing the relative goodness of fit between the experimental data and the model predictions as determined from the multi-monoubiquitination model. For this particular analysis it was decided to calculate the sample Pearson correlation coefficient (Eq. S10 in File S1), a widely used metric to measure the dependence between two variables. A correlation coefficient was calculated between the model predictions and experimental data for mono-, di-, tri-, and tetra-ubiquitinated substrate for all nine degron-based substrates (Table S1 in File S1). As per convention, a positive value approaching 1 corresponds to a very good fit, which is observed for all nine substrates indicating a good fit between model and data.

[2] = system: endogenous proteases and peptidases found in the S100 lysates
SCF^βTrCP = settings: published substrate; optimized test tube reaction with excess E1, E2, and E3 ligases, no competing peptidases; cited from earlier work
From the text: While there exist kinetic studies of specific E3 ligases, [47], [48] and individual degrons there has not been a comprehensive analysis of ubiquitination kinetics of multiple degrons in a single study. The presented work allowed for the calculation of rate constants for multiple degrons in a single cell line, effectively comparing the ubiquitination kinetics of different E3 ligase targets.

T1 sequence (Q00987 whole entry): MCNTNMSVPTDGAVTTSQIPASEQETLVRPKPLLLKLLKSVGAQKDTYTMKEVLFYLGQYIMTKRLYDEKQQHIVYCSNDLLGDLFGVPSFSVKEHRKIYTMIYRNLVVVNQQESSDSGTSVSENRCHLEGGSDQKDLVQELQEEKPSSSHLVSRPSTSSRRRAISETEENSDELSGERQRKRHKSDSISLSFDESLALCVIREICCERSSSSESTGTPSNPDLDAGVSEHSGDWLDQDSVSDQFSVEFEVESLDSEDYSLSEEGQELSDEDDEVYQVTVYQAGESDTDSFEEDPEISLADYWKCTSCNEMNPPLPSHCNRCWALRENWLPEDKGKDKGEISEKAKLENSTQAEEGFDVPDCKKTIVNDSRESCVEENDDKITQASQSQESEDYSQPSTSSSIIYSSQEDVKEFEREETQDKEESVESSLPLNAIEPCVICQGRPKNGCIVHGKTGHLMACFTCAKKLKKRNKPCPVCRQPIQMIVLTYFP

- effect of inhibitor on Hdm2-dependent ubiquitination of the p53-based substrate (Hdm2; inhibitor 1, 10 µM): No decrease
Compound: CN(C)CCCNc1c2c(=O)n(C)c(=O)nc-2n(C)c2ccccc12 [HLI-373]

Compound: Cc1ccc2ccc(C(Nc3ccccc3)c3ccccc3)c(O)c2n1 (centres unmarked) [NSC-66811]
- effect of inhibitor on Hdm2-dependent ubiquitination of the p53-based substrate (Hdm2; inhibitor 1 µM dose): pronounced decrease

- k1/k5, mono-ubiquitination vs. degradation of unmodified substrate [1]: 1.55
- k6, rate constant for peptidase-dependent degradation of mono-ubiquitinated substrate [2]: 0.1 (1/min)*10^3
- k7, rate constant for peptidase-dependent degradation of di-ubiquitinated substrate [2]: 0.1 (1/min)*10^3
- k8, rate constant for peptidase-dependent degradation of tri-ubiquitinated substrate [2]: 1.0 (1/min)*10^3
- k9, rate constant for peptidase-dependent degradation of tetra-ubiquitinated substrate [2]: 3.0 (1/min)*10^3
Compound: KAWQQQSYLDSGIHSGATTTAPK(FAM)KKK [β-Catenin, fluorescein-tagged degron-based peptide substrate from β-Catenin, E3 ligase SCF^βTrCP]
- rate constant for β-Catenin ubiquitination previously reported (SCF^βTrCP): 0.28 min⁻¹
